From US12252481B2, “Anti-viral compounds” (Aligos Therapeutics, Inc., priority 2021, dated 2025)
Like-named read-outs stand apart in the source and are kept apart here.

Columns and labels:
[1] = tested on: B.1.1.7 lineage SARS-CoV-2; assay: microbe, parasite or virus in culture; format: cell-based; details: read-out: A549-dual_ACE2_TMPRSS2 (EC50)
Vero E6-eGFP cells = details: read-out: VeroE6 + CP (CC50), absence of virus, numeric values
human cathepsin L = biological target: T1, human cathepsin L (Homo sapiens, UniProt P07711); assay: Cathepsin L assay (Z-FR-AMC fluorescence); format: biochemical; details: 10 pM human cathepsin L, 30 mins preincubation, Z-FR-AMC 2 μM
T1 construct: purchased R&D Systems
In short: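 Human cathepsin L (10 pM) was preincubated 30 min with compound, then reactions were started with Z-FR-AMC substrate (2 μM final). AMC fluorescence (355/460 nm) was read every 2 min over 30 min. IC50 came from a four-parameter curve fit.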

[2] = tested on: A549-dual_ACE2_TMPRSS2 cells
HeLa cells [3] = tested on: HeLa cells
[4] = tested on: human beta-coronavirus OC43; assay: OC43 coronavirus antiviral assay in HeLa cells (cytopathic effect, cell-titer-glo); format: cell-based; details: 6 days at 33° C., read-out: EC50 (class)
SARS-Cov-2 3CLpro = biological target: T2, SARS-Cov-2 3CLpro (Severe acute respiratory syndrome coronavirus 2, UniProt P0DTD1); assay: biochemical; details: read-out: SARS-Cov-2 IC50 (class)
T2 construct: 3CLpro and HRV3C was added using a Multidrop Combi

HRV3C = biological target: T3, HRV3C (Human rhinovirus 14, UniProt P03303); assay: biochemical; parameters: species or system HRV
T3 construct: 3CLpro and HRV3C was added using a Multidrop Combi

[5] = tested on: SARS-CoV-2-GHB-03021/2020; format: cell-based; details: read-out: VeroE6 + CP (EC50)
HeLa cells [6] = assay: Cytotoxicity in HeLa cells without OC43 virus (cell-titer-glo); details: HeLa cells without OC43 virus
[7] = read-out: A549-dual_ACE2_TMPRSS2 (CC50), assay medium without virus, MTS, numeric values
[8] = 3CLpro, 30 mins preincubation, SAMDI-MS
[9] = HRV3C, 30 mins preincubation, SAMDI-MS, read-out: HRV IC50 (bound)

T3 sequence (P03303 1538-1719): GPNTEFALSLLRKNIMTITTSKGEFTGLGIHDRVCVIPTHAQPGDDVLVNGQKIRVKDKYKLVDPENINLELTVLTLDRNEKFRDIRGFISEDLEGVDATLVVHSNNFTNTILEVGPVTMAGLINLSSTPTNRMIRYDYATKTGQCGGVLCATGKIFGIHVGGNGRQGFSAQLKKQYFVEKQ
T1 sequence (P07711 114-333): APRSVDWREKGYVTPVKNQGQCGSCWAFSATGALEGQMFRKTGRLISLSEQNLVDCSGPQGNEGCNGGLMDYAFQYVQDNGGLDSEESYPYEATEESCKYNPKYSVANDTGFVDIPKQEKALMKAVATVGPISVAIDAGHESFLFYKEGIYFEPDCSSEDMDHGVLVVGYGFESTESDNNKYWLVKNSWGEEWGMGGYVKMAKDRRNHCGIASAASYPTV

With N#C[C@H](C[C@@H]1CCNC1=O)NC(=O)[C@@H]1[C@@H]2[C@H](CN1C(=O)[C@@H]1C[C@]13CCCc1ccccc13)[C@@H]1C=C[C@H]2C1 (single isomer, unassigned) [Example 8] the EC50 [1] was < 0.1 µM, the CC50 (Vero E6-eGFP cells) was > 50 µM and the IC50 (human cathepsin L) was ≥ 10 µM. For the same molecule, the CC50 [2, 7] was > 10 µM, the CC50 (HeLa cells [3]) was > 100 µM and the EC50 [4] was 0.1 to 1 µM. For the same molecule, the IC50 (SARS-Cov-2 3CLpro; [8]) was 0.02 to 0.2 µM and the IC50 (HRV3C; [9]) was > 10 µM.
In the case of CC1(C(=O)N[C@H](C(=O)N2C[C@H]3[C@@H]([C@H]2C(=O)N[C@H](C#N)C[C@@H]2CCNC2=O)[C@H]2C=C[C@@H]3C2)C(C)(C)C)CC1 [Compound 47, (1R,2S,3S,6R,7S)—N-[(1S)-1-cyano-2-[(3S)-2-oxopyrrolidin-3-yl]ethyl]-4-[(2S)-3,3-dimethyl-2-[(1-methylcyclopropyl)formamido]butanoyl]-4-azatricyclo[5.2.1.0^{2,6}]dec-8-ene-3-carboxamide], the CC50 (Vero E6-eGFP cells) is reported as > 50 µM, the IC50 (human cathepsin L) is reported as ≥ 10 µM and the CC50 [2, 7] is reported as > 10 µM. The CC50 (HeLa cells [3]) was > 100 µM, the EC50 [4] was 0.1 to 1 µM and the IC50 (SARS-Cov-2 3CLpro; [8]) was 0.02 to 0.2 µM. The IC50 (HRV3C; [9]) was > 10 µM.
CC(C)(C)[C@H](NC(=O)C(F)(Cl)Cl)C(=O)N1C[C@H]2[C@@H]([C@H]1C(=O)N[C@H](C#N)C[C@@H]1CCNC1=O)[C@H]1C=C[C@@H]2C1 [Compound 48, (1R,2S,3S,6R,7S)—N-[(1S)-1-cyano-2-[(3S)-2-oxopyrrolidin-3-yl]ethyl]-4-[(2S)-2-(2,2-dichloro-2-fluoroacetamido)-3,3-dimethylbutanoyl]-4-azatricyclo[5.2.1.0^{2,6}]dec-8-ene-3-carboxamide] was tested, and the EC50 [1] was < 0.1 µM, the CC50 (Vero E6-eGFP cells) was > 50 µM and the EC50 [5] was < 0.1 µM. The IC50 (human cathepsin L) was ≥ 10 µM, the CC50 [2, 7] was > 10 µM and the EC50 [4] was < 0.1 µM. For the same molecule, the IC50 (SARS-Cov-2 3CLpro) was < 0.02 µM, the CC50 (HeLa cells [6]) was > 100 µM and the IC50 (HRV3C; [9]) was > 10 µM.
With CC(C)(C)[C@H](NC(=O)C(F)(F)F)C(=O)N1C[C@H]2[C@@H]([C@H]1C(=O)N[C@H](C#N)CC1Cn3ncnc3NC1=O)[C@H]1C=C[C@@H]2C1 (stereo partly drawn) [Compound 51, (1R,2S,3S,6R,7S)—N-[(1S)-1-cyano-2-{5-oxo-4H,6H,7H-[1,2,4]triazolo[1,5-α]pyrimidin-6-yl}ethyl]-4-[(2S)-3,3-dimethyl-2-(2,2,2-trifluoroacetamido)butanoyl]-4-azatricyclo[5.2.1.0^{2,6}]dec-8-ene-3-carboxamide] the EC50 [1] was 1 to 10 µM, the CC50 (Vero E6-eGFP cells) was > 50 µM and the IC50 (human cathepsin L) was ≥ 10 µM. For the same molecule, the CC50 [2, 7] was > 10 µM, the EC50 [4] was 0.1 to 1 µM and the IC50 (SARS-Cov-2 3CLpro) was < 0.02 µM. For the same molecule, the CC50 (HeLa cells [6]) was > 100 µM and the IC50 (HRV3C; [9]) was > 10 µM.
C#CC(C)(C)[C@H](NC(=O)C1(F)CC1)C(=O)N1C[C@H]2[C@@H]([C@H]1C(=O)N[C@H](C#N)C[C@@H]1CCNC1=O)[C@H]1C=C[C@@H]2C1 [Compound 63, (1R,2S,3S,6R,7S)—N-[(1S)-1-cyano-2-[(3S)-2-oxopyrrolidin-3-yl]ethyl]-4-[(2S)-2-[(1-fluorocyclopropyl)formamido]-3,3-dimethylpent-4-ynoyl]-4-azatricyclo[5.2.1.0^{2,6}]dec-8-ene-3-carboxamide] was tested, and the EC50 [1] was < 0.1 µM, the IC50 (human cathepsin L) was ≥ 10 µM and the CC50 [2, 7] was > 10 µM. The CC50 (HeLa cells [3]) was > 100 µM, the EC50 [4] was < 0.1 µM and the IC50 (SARS-Cov-2 3CLpro; [8]) was < 0.02 µM. The IC50 (HRV3C; [9]) was > 10 µM.
CC(C)(C1CC1)[C@H](NC(=O)C(F)(F)F)C(=O)N1C[C@H]2[C@@H]([C@H]1C(=O)N[C@H](C#N)C[C@@H]1CCNC1=O)[C@H]1C=C[C@@H]2C1 [Compound 69, (1R,2S,3S,6R,7S)—N-[(1S)-1-cyano-2-[(3S)-2-oxopyrrolidin-3-yl]ethyl]-4-[(2S)-3-cyclopropyl-3-methyl-2-(2,2,2-trifluoroacetamido)butanoyl]-4-azatricyclo[5.2.1.0^{2,6}]dec-8-ene-3-carboxamide] was tested, and the EC50 [1] was < 0.1 µM, the IC50 (human cathepsin L) was ≥ 10 µM and the CC50 [2, 7] was > 10 µM. The EC50 [4] was < 0.1 µM, the IC50 (SARS-Cov-2 3CLpro) was < 0.02 µM and the CC50 (HeLa cells [6]) was > 100 µM. For the same molecule, the IC50 (HRV3C; [9]) was > 10 µM.
With C[C@@H](OC(C)(C)C)[C@H](NC(=O)C(F)(F)F)C(=O)N1C[C@H]2[C@@H]([C@H]1C(=O)N[C@H](C#N)C[C@@H]1CCNC1=O)[C@H]1C=C[C@@H]2C1 [Example 3, (1R,2S,3S,6R,7S)-4-[(2S,3R)-3-(tert-butoxy)-2-(2,2,2-trifluoroacetamido)butanoyl]-N-[(1S)-1-cyano-2-[(3S)-2-oxopyrrolidin-3-yl]ethyl]-4-azatricyclo[5.2.1.0^{2,6}]dec-8-ene-3-carboxamide] the EC50 [1] was < 0.1 µM, the CC50 (Vero E6-eGFP cells) was > 50 µM and the EC50 [5] was < 0.1 µM. For the same molecule, the IC50 (human cathepsin L) was ≥ 10 µM, the CC50 [2, 7] was > 10 µM and the EC50 [4] was < 0.1 µM. For the same molecule, the IC50 (SARS-Cov-2 3CLpro) was < 0.02 µM, the CC50 (HeLa cells [6]) was > 100 µM and the IC50 (HRV3C; [9]) was > 10 µM.
For Cc1cc(C(=O)N[C@H](C(=O)N2C[C@H]3[C@@H]([C@H]2C(=O)N[C@H](C#N)C[C@@H]2CCNC2=O)[C@H]2C=C[C@@H]3C2)C(C)(C)C)no1 [Example 4, (1R,2S,3S,6R,7S)—N-[(1S)-1-cyano-2-[(3S)-2-oxopyrrolidin-3-yl]ethyl]-4-[(2S)-3,3-dimethyl-2-[(5-methyl-1,2-oxazol-3-yl)formamido]butanoyl]-4-azatricyclo[5.2.1.0^{2,6}]dec-8-ene-3-carboxamide], the EC50 [1] was 0.1 to 1 µM, the CC50 (Vero E6-eGFP cells) was > 50 µM and the EC50 [5] was 0.1 to 1 µM. For the same molecule, the IC50 (human cathepsin L) was ≥ 10 µM, the CC50 [2, 7] was > 10 µM and the CC50 (HeLa cells [3]) was > 100 µM. The EC50 [4] was < 0.1 µM, the IC50 (SARS-Cov-2 3CLpro; [8]) was 0.02 to 0.2 µM and the IC50 (HRV3C; [9]) was > 10 µM.
With CC(C)(C)[C@H](NC(=O)c1ccccn1)C(=O)N1C[C@H]2[C@@H]([C@H]1C(=O)N[C@H](C#N)C[C@@H]1CCNC1=O)[C@H]1C=C[C@@H]2C1 [Example 5, (1R,2S,3S,6R,7S)—N-[(1S)-1-cyano-2-[(3S)-2-oxopyrrolidin-3-yl]ethyl]-4-[(2S)-3,3-dimethyl-2-(pyridin-2-ylformamido)butanoyl]-4-azatricyclo[5.2.1.0^{2,6}]dec-8-ene-3-carboxamide] the EC50 [1] was 1 to 10 µM, the CC50 (Vero E6-eGFP cells) was > 50 µM and the EC50 [5] was 1 to 10 µM. The IC50 (human cathepsin L) was ≥ 10 µM, the CC50 [2, 7] was > 10 µM and the CC50 (HeLa cells [3]) was > 100 µM. The EC50 [4] was 0.1 to 1 µM, the IC50 (SARS-Cov-2 3CLpro; [8]) was 0.2 to 2 µM and the IC50 (HRV3C; [9]) was > 10 µM.
CC(C)(C)[C@H](NC(=O)c1cnccn1)C(=O)N1C[C@H]2[C@@H]([C@H]1C(=O)N[C@H](C#N)C[C@@H]1CCNC1=O)[C@H]1C=C[C@@H]2C1 [Example 6, (1R,2S,3S,6R,7S)—N-[(1S)-1-cyano-2-[(3S)-2-oxopyrrolidin-3-yl]ethyl]-4-[(2S)-3,3-dimethyl-2-(pyrazin-2-ylformamido)butanoyl]-4-azatricyclo[5.2.1.0^{2,6}]dec-8-ene-3-carboxamide] was tested, and the EC50 [1] was 1 to 10 µM, the EC50 [5] was 1 to 10 µM and the IC50 (human cathepsin L) was ≥ 10 µM. The CC50 [2] was > 10 µM, the CC50 (HeLa cells [3]) was > 100 µM and the EC50 [4] was < 0.1 µM. For the same molecule, the IC50 (SARS-Cov-2 3CLpro) was 0.02 to 0.2 µM and the IC50 (HRV3C; read-out: HRV IC50 (bound)) was > 10 µM.
In the case of C#CC(C)(C)[C@H](NC(=O)C(F)(F)F)C(=O)N1C[C@H]2[C@@H]([C@H]1C(=O)N[C@H](C#N)C[C@@H]1CCNC1=O)[C@H]1C=C[C@@H]2C1 [Example 7, (1R,2S,3S,6R,7S)—N-[(1S)-1-cyano-2-[(3S)-2-oxopyrrolidin-3-yl]ethyl]-4-[(2S)-3,3-dimethyl-2-(2,2,2-trifluoroacetamido)pent-4-ynoyl]-4-azatricyclo[5.2.1.0^{2,6}]dec-8-ene-3-carboxamide], the EC50 [1] is reported as < 0.1 µM, the CC50 (Vero E6-eGFP cells) is reported as > 50 µM and the EC50 [5] is reported as < 0.1 µM. The IC50 (human cathepsin L) was ≥ 10 µM, the CC50 [2, 7] was > 10 µM and the EC50 [4] was < 0.1 µM. For the same molecule, the IC50 (SARS-Cov-2 3CLpro) was < 0.02 µM, the CC50 (HeLa cells [6]) was > 100 µM and the IC50 (HRV3C; [9]) was > 10 µM.
With CC(C)(C)[C@H](NC(=O)C(F)(F)F)C(=O)N1C[C@H]2[C@@H]([C@H]1C(=O)NC(C[C@@H]1CCNC1=O)C(=O)C(=O)NC1CC1)[C@H]1C=C[C@@H]2C1 (stereo partly drawn) [Example 10, N-cyclopropyl-3-{[(1R,2S,3S,6R,7S)-4-[(2S)-3,3-dimethyl-2-(2,2,2-trifluoroacetamido)butanoyl]-4-azatricyclo[5.2.1.0^{2,6}]dec-8-en-3-yl]formamido}-2-oxo-4-[(3S)-2-oxopyrrolidin-3-yl]butanamide] the CC50 (Vero E6-eGFP cells) was > 50 µM, the IC50 (human cathepsin L) was ≥ 10 µM and the CC50 [2, 7] was > 10 µM. The EC50 [4] was 0.1 to 1 µM, the IC50 (SARS-Cov-2 3CLpro) was < 0.02 µM and the CC50 (HeLa cells [6]; read-out: CC50 (class)) was > 10 µM. The IC50 (HRV3C; HRV3C, 30 mins preincubation, SAMDI-MS, read-out: HRV IC50 (class)) was 0.02 to 0.2 µM.
In the case of CC(C)(C)[C@H](NC(=O)C(F)(F)F)C(=O)N1C[C@@H]2[C@H]3C[C@@H]([C@@H]2[C@H]1C(=O)N[C@H](C#N)C[C@@H]1CCNC1=O)[C@H](F)C3 [Example 86, (1S,2R,3S,6R,7S,9R)—N-[(1S)-1-cyano-2-[(3S)-2-oxopyrrolidin-3-yl]ethyl]-4-[(2S)-3,3-dimethyl-2-(2,2,2-trifluoroacetamido)butanoyl]-9-fluoro-4-azatricyclo[5.2.1.0^{2,6}]decane-3-carboxamide], the EC50 [1] is reported as < 0.1 µM, the IC50 (human cathepsin L) is reported as ≥ 10 µM and the CC50 [2, 7] is reported as > 10 µM. For the same molecule, the EC50 [4] was < 0.1 µM, the IC50 (SARS-Cov-2 3CLpro) was < 0.02 µM and the CC50 (HeLa cells [6]) was > 100 µM. The IC50 (HRV3C; [9]) was > 0.5 µM.
